Measured values as given in PMC12408343, “Deep learning reveals antibiotics in the archaeal proteome” (Nature Microbiology, 2025).
≈ marks a conversion by molar mass, not a printed value. Bridge positions count the residues as written; N and C are the ends. Square brackets hold non-standard residues; d marks the D form. Peptide text beside a SMILES is read from it. * marks the point of attachment. X1 = CC[C@H](C)CCCCC(=O)*; Dab = NCC[C@H](N)C(=O)O

Legend:
E. coli AIC221 = assay: microbe, parasite or virus in culture; conditions: for MIC E. coli AIC221 (−): broth microdilution, LB, 1–64 μmol l^−1 two-fold dilutions, 24 h, 37 °C, OD600, mode of three independent replicates
Description: (§1) Briefly, 10^5 bacterial cells were incubated with serially diluted EPs (0–64 μmol l^−1) at 37 °C. Bacterial growth was assessed by measuring the optical density at 600 nm in a microplate reader at 1 day post-treatment. […] Secondary structure fractions were calculated using the BeStSel server. fH and fβ stand for helical and β fractions, respectively.

P. aeruginosa PA14 = assay: microbe, parasite or virus in culture; conditions: for MIC P. aeruginosa PA14 (−): broth microdilution, LB, 1–64 μmol l^−1 two-fold dilutions, 24 h, 37 °C, OD600, mode of three independent replicates
Description: as §1

[1] = test system: S. aureus ATCC BAA-1556 (MRSA); assay: microbe, parasite or virus in culture; conditions: 24 h
Description: as §1

P. aeruginosa PAO1 = assay: microbe, parasite or virus in culture; conditions: for MIC P. aeruginosa PAO1 (−): broth microdilution, LB, 1–64 μmol l^−1 two-fold dilutions, 24 h, 37 °C, OD600, mode of three independent replicates
Description: as §1

[2] = test system: E. coli AIC222 (colistin-resistant, CRE); assay: microbe, parasite or virus in culture; conditions: 24 h; for MIC E. coli AIC222 – CRE (−): colistin-resistant strain, broth microdilution, LB, 1–64 μmol l^−1 two-fold dilutions, 37 °C, OD600, mode of three independent replicates
Description: as §1

E. coli ATCC 11775 = assay: microbe, parasite or virus in culture; conditions: for MIC E. coli ATCC 11775 (−): broth microdilution, LB, 1–64 μmol l^−1 two-fold dilutions, 24 h, 37 °C, OD600, mode of three independent replicates
Description: as §1

[3] = test system: E. faecalis ATCC 700802 (VRE); assay: Broth microdilution MIC; assay type: cell-based, Enterococcus faecalis; conditions: vancomycin-resistant strain, LB, 1–64 μmol l^−1 two-fold dilutions, 24 h, 37 °C, OD600, mode of three independent replicates
Description: as §1

A. baumannii ATCC 19606 [4] = assay: Neutropenic deep thigh infection mouse model; assay type: in vivo; conditions: neutropenic female CD-1 mice, n = 6, single intraperitoneal dose 2 h after infection
Description: The limit of detection (LOD) for the CFU quantification is log10CFU = 2. Statistical significance in panels b and d was determined using one-way analysis of variance followed by Dunnett’s test; P values are shown in the graphs. In the violin, the centre line represents […], the box limits the 1st and 3rd quartiles, and the whiskers (minimum and maximum) represent 1.5× the interquartile range. The solid line inside each box represents […] value obtained for each group. Panels a and c created with BioRender.com. Source data
Next, we assessed the efficacy of the same lead archaeasins (archaeasin-2, archaeasin-17 and archaeasin-73) in a murine deep thigh infection model (Fig. 5c), which is widely used to assess the antibiotic potential of compounds. Mice were administered 2 rounds of cyclophosphamide treatment for immunosuppression before the intramuscular infection with 1 × 10^5 cells in 100 μl of A. baumannii. A single dose of each archaeasin (at their MIC) was delivered intraperitoneally (Fig. 5c). […] Four days post-treatment, the bacterial counts remained stable for all peptide treatment conditions and the treatments with polymyxin B and levofloxacin, while the untreated control increased by two orders of magnitude. […]

K. pneumoniae ATCC 13883 = assay: microbe, parasite or virus in culture; conditions: for MIC K. pneumoniae ATCC 13883 (−): broth microdilution, LB, 1–64 μmol l^−1 two-fold dilutions, 24 h, 37 °C, OD600, mode of three independent replicates
Description: as §1

S. aureus ATCC 12600 = assay: microbe, parasite or virus in culture
Description: as §1

A. baumannii ATCC 19606 [5] = assay: microbe, parasite or virus in culture; conditions: for MIC A. baumannii ATCC 19606 (−): broth microdilution, LB, 1–64 μmol l^−1 two-fold dilutions, 24 h, 37 °C, OD600, mode of three independent replicates
Description: as §1

[6] = test system: E. faecium ATCC 700221 (VRE); assay: microbe, parasite or virus in culture; conditions: 24 h
Description: as §1

SMILES	MIC E. coli AIC221 (−) (E. coli AIC221)	MIC P. aeruginosa PA14 (−) (P. aeruginosa PA14)	MIC P. aeruginosa PAO1 (−) (P. aeruginosa PAO1)	MIC E. coli AIC222 – CRE (−) [2]	MIC E. coli ATCC 11775 (−) (E. coli ATCC 11775)	reduction of bacterial load, deep thigh infection, four days post-treatment (A. baumannii ATCC 19606 [4])	MIC K. pneumoniae ATCC 13883 (−) (K. pneumoniae ATCC 13883)	MIC A. baumannii ATCC 19606 (−) (A. baumannii ATCC 19606 [5])	other results
C[C@H]1COc2c(N3CCN(C)CC3)c(F)cc3c(=O)c(C(=O)O)cn1c23 [Levofloxacin, reference compound]	0.125 µM (≈ 0.0452 µg/mL)	0.5 µM (≈ 0.181 µg/mL)	4 µM (≈ 1.45 µg/mL)	0.25 µM (≈ 0.0903 µg/mL)	0.125 µM (≈ 0.0452 µg/mL)	three	1 µM (≈ 0.361 µg/mL)	1 µM (≈ 0.361 µg/mL)	MIC (E. coli AIC221; Escherichia coli, AIC221, 24 h, read-out: MIC E. coli AIC221 (−)): 0.125 µM (≈ 0.0452 µg/mL); MIC (P. aeruginosa PA14; Pseudomonas aeruginosa, PA14, 24 h, read-out: MIC P. aeruginosa PA14 (−)): 0.5 µM (≈ 0.181 µg/mL); MIC ([1]; Staphylococcus aureus, ATCCBAA1556|MRSA, read-out: MIC S. aureus ATCC BAA-1556 – MRSA (+)): 32 µM (≈ 11.6 µg/mL); MIC S. aureus ATCC BAA-1556 – MRSA (+) ([1]; methicillin-resistant strain, broth microdilution, LB, 1–64 μmol l^−1 two-fold dilutions, 37 °C, OD600, mode of three independent replicates): 32 µM (≈ 11.6 µg/mL); MIC (P. aeruginosa PAO1; Pseudomonas aeruginosa, PAO1, 24 h, read-out: MIC P. aeruginosa PAO1 (−)): 4 µM (≈ 1.45 µg/mL); MIC ([2]; Escherichia coli, read-out: MIC E. coli AIC222 – CRE (−)): 0.25 µM (≈ 0.0903 µg/mL); MIC (E. coli ATCC 11775; Escherichia coli, ATCC11775, 24 h, read-out: MIC E. coli ATCC 11775 (−)): 0.125 µM (≈ 0.0452 µg/mL); MIC ([3]; Enterococcus faecalis): 2 µM (≈ 0.723 µg/mL); MIC E. faecalis ATCC 700802 – VRE (+) [3]: 2 µM (≈ 0.723 µg/mL); MIC (K. pneumoniae ATCC 13883; Klebsiella pneumoniae, ATCC13883, 24 h, read-out: MIC K. pneumoniae ATCC 13883 (−)): 1 µM (≈ 0.361 µg/mL); MIC (S. aureus ATCC 12600; Staphylococcus aureus, ATCC12600, 24 h, read-out: MIC S. aureus ATCC 12600 (+)): 2 µM (≈ 0.723 µg/mL); MIC S. aureus ATCC 12600 (+) (S. aureus ATCC 12600; broth microdilution, LB, 1–64 μmol l^−1 two-fold dilutions, 24 h, 37 °C, OD600, mode of three independent replicates): 2 µM (≈ 0.723 µg/mL); MIC (A. baumannii ATCC 19606 [5]; Acinetobacter baumannii, ATCC19606, 24 h, read-out: MIC A. baumannii ATCC 19606 (−)): 1 µM (≈ 0.361 µg/mL); MIC ([6]; Enterococcus faecium, ATCC700221|VRE, read-out: MIC E. faecium ATCC 700221 – VRE (+)): 16 µM (≈ 5.78 µg/mL); MIC E. faecium ATCC 700221 – VRE (+) ([6]; vancomycin-resistant strain, broth microdilution, LB, 1–64 μmol l^−1 two-fold dilutions, 37 °C, OD600, mode of three independent replicates): 16 µM (≈ 5.78 µg/mL)
CC[C@H](C)CCCCC(=O)N[C@@H](CCN)C(=O)N[C@H](C(=O)N[C@@H](CCN)C(=O)N[C@H]1CCNC(=O)[C@H]([C@@H](C)O)NC(=O)[C@H](CCN)NC(=O)[C@H](CCN)NC(=O)[C@H](CC(C)C)NC(=O)[C@@H](Cc2ccccc2)NC(=O)[C@H](CCN)NC1=O)[C@@H](C)O [Polymyxin B, reference compound] (X1-[Dab]T[Dab][Dab][Dab][dF]L[Dab][Dab]T; lactam 4-C (inferred); N-terminus assumed)	0.25 µM (≈ 0.301 µg/mL)	8 µM (≈ 9.63 µg/mL)	4 µM (≈ 4.81 µg/mL)	8 µM (≈ 9.63 µg/mL)	0.25 µM (≈ 0.301 µg/mL)	three	8 µM (≈ 9.63 µg/mL)	0.5 µM (≈ 0.602 µg/mL)	
